In patent US20160346313A1, “USES OF OLIGOURONATES IN CANCER TREATMENT” (NORWEGIAN UNIVERSITY OF SCIENCE AND TECHNOLOGY, priority 2013, published 2016):

Tested on: Capan-2 human pancreas tumour xenograft
Test: Capan-2 human pancreas tumour xenograft model: tumour weight, with statistical analysis (ANOVA by day, Eav, log scale, exponential growth model)
Type: in vivo, Female Athymic Nude mice
Conditions: for Tumour weight, Difference vs Vehicle / Tumour weight, Estimate: Q3Dx4, G-Block IV, gemcitabine IP; for Estimate (mg), tumour weight geometric mean / Ratio vs Vehicle: Gemcitabine 5
Experimental: Efficacy was assessed by comparison of tumour weights of treated groups with the vehicle control group on Day 11 and 74 and between combination groups and their respective single agents on Day 11 and 74.
G-Block (Lot #PolyG 230712-Dp10, 95%G) was received as a white hygroscopic amorphous powder from NTNU Technology Transfer AS (Trondheim, Norway) and stored desiccated at room temperature until use. NTNU's G-Block was dissolved in MilliQ water to a concentration of 70 mg/ml to be used as the stock solution. This solution was used to deliver a dose of approximately 560 mg/kg in a 200 μl fixed dose. The 70 mg/ml solution was then diluted in 0.9% 150 mM NaCl (B. Braun Medical; Irvine, Calif.) to deliver doses of approximately 200 mg/kg, 75 mg/kg, 25 mg/kg, and 5 mg/kg in a 200 μL fixed dose volume. All dosing calculations assume a 25 g animal. NTNU's G-Block 70 mg/ml stock solution was formulated at the beginning of the study and used for dilutions before each dose, sterile filtered, and stored at 4° C. between doses. All unused dosing mixture was properly disposed of at TD2 after the study ended.
All unused dosing mixture was properly disposed of at TD2 after each dose.
Vehicle control was dosed with a solution of 0.9% 150 mM NaCl at a 10 ml/kg dose volume. Vehicle control was stored at room temperature.
Capan-2 human pancreas tumour xenograft cell line was received from ATCC (Manassas, Va.). Cultures were maintained in McCoy's 5A medium (Hyclone, Logan, Utah) supplemented with 10% fetal bovine serum (Omega Scientific; Tarzana, Calif.), and housed in a 5% CO2 atmosphere. The cultures were expanded in tissue culture flasks at a 1:5 split ratio until a sufficient amount of cells were harvested.
Female Athymic Nude mice (Hsd:Athymic Nude-Foxn1^nu) were supplied by Harlan (Germantown, N.Y.). Mice were received at 4 weeks of age. All mice were acclimated prior to handling. The mice were housed in microisolator cages (Lab Products, Seaford, Del.) and maintained under specific pathogen-free conditions. The mice were fed Tekland Global Diet® 2920× irradiated laboratory animal diet (Harlan, Indianapolis, Ind.) and autoclaved water was freely available. All procedures were carried out under the institutional guidelines of TGen Drug Development Institutional Animal Care and Use Committee (Protocol #13046).
Female mice were inoculated subcutaneously in the right flank with 0.1 mL of a 50% RPMI/50% Matrigel™ (BD Biosciences, Bedford, Mass.) mixture containing a suspension of Capan-2 tumor cells (approximately 5.0×10^6 cells/mouse). Seven days following inoculation, tumors were measured using calipers and tumor weight was calculated using the animal study management software, Study Director V.2.1.1 (Study Log)^1. Eighty mice with tumor sizes of 101-194 mg were randomized into eight groups of ten mice each by random equilibration with a mean of approximately 140 mg, using Study Director (Day 1). Body weights were recorded when the mice were randomized and were taken twice weekly thereafter in conjunction with tumor measurements. Dosing was performed as described below in Table 1.
All groups were terminated on Day 74. Mice were sacrificed prior to study end if tumor weight exceeded 1500 mg. Upon necropsy, tumors were excised from all animals in all groups and bisected in halves, placed in formalin vials (Azer Scientific/VWR; Franklin Lakes, N.J.) then fixed for approximately 24 hours before transferring to ethanol. Formalin-fixed tissues were embedded in paraffin, processed, and H & E stained.
The following concerns a statistical analysis of tumour weights in the study reported in Example 2. […] Tumour weight and body weights were assessed Day 1 and then twice weekly up to last assessment on Day 74.
Treatments were compared using an analysis of variance (ANOVA) model with fixed factor treatment and tumour weight at Day 1 as a covariate and assuming equal variance for each assessment (Day 1 model without covariate).

[1] = 0-19 days, label number = dose mg/kg, Q3Dx4
[2] = 0-29 days, label number = dose mg/kg, Q3Dx4
[3] = 0-39 days, label number = dose mg/kg, Q3Dx4
[4] = 0-50 days, label number = dose mg/kg, Q3Dx4
[5] = 0-60 days, label number = dose mg/kg, Q3Dx4
[6] = Day 1 (randomisation), label number = dose mg/kg
[7] = Day 4, label number = dose mg/kg
[8] = Day 8, label number = dose mg/kg
[9] = Day 11, label number = dose mg/kg
[10] = Day 16, label number = dose mg/kg
[11] = Day 19, label number = dose mg/kg
[12] = Day 22, label number = dose mg/kg
[13] = Day 25, label number = dose mg/kg
[14] = Day 29, label number = dose mg/kg
[15] = Day 32, label number = dose mg/kg
[16] = Day 36, label number = dose mg/kg
[17] = Day 39, label number = dose mg/kg
[18] = Day 43, label number = dose mg/kg
[19] = Day 46, label number = dose mg/kg
[20] = Day 50, label number = dose mg/kg
[21] = Day 53, label number = dose mg/kg
[22] = Day 57, label number = dose mg/kg
[23] = Day 60, label number = dose mg/kg
[24] = Day 64, label number = dose mg/kg
[25] = Day 67, label number = dose mg/kg
[26] = Day 71, label number = dose mg/kg
[27] = Day 74, label number = dose mg/kg

Structure (SMILES): Nc1ccn([C@@H]2O[C@H](CO)[C@@H](O)C2(F)F)c(=O)n1 [Gemcitabine 5, Gemcitabine]
- Eau, 0-19 (average tumour weight = AUC / interval length), Estimate [1]: 173.4 mg
- Eau, 0-19, Difference vs Vehicle [1]: -67.6 mg
- Eau, 0-29 (average tumour weight = AUC / interval length), Estimate [2]: 195.5 mg
- Eau, 0-29, Difference vs Vehicle [2]: -93.6 mg
- Eau, 0-39 (average tumour weight = AUC / interval length), Estimate [3]: 231.3 mg
- Eau, 0-39, Difference vs Vehicle [3]: -118.1 mg
- Eau, 0-50 (average tumour weight = AUC / interval length), Estimate [4]: 292.1 mg
- Eau, 0-50, Difference vs Vehicle [4]: -121.2 mg
- Eau, 0-60 (average tumour weight = AUC / interval length), Estimate [5]: 349.7 mg
- Eau, 0-60, Difference vs Vehicle [5]: -118.4 mg
- Consistent statistically significant effect versus Vehicle on tumour weight, up to Day (ANOVA by day): ≤ 36
- Eav intervals with statistically significant effects versus Vehicle, up to (ANOVA of Eav): up to 50 days
- Tumour weight, Difference vs Vehicle [6]: -0.0 mg
- Tumour weight, Estimate [6]: 140.7 mg
- Estimate (mg), tumour weight geometric mean (Day 1): 138.6 mg
- Ratio vs Vehicle (Day 1): 1.00
- Estimate (mg), tumour weight geometric mean (Day 4): 186.7 mg
- Tumour weight, Difference vs Vehicle [7]: 14.1 mg
- Tumour weight, Estimate [7]: 189.8 mg
- Estimate (mg), tumour weight geometric mean (Day 8): 157.0 mg
- Ratio vs Vehicle (Day 8): 0.71
- Tumour weight, Difference vs Vehicle [8]: -69.0 mg
- Tumour weight, Estimate [8]: 161.6 mg
- Estimate (mg), tumour weight geometric mean (Day 11): 167.8 mg
- Ratio vs Vehicle (Day 11): 0.64
- Tumour weight, Difference vs Vehicle [9]: -111.0 mg
- Tumour weight, Estimate [9]: 174.2 mg
- Estimate (mg), tumour weight geometric mean (Day 16): 172.5 mg
- Ratio vs Vehicle (Day 16): 0.63
- Tumour weight, Difference vs Vehicle [10]: -116.3 mg
- Tumour weight, Estimate [10]: 181.4 mg
- Estimate (mg), tumour weight geometric mean (Day 19): 185.1 mg
- Ratio vs Vehicle (Day 19): 0.64
- Tumour weight, Difference vs Vehicle [11]: -119.5 mg
- Tumour weight, Estimate [11]: 194.7 mg
- Estimate (mg), tumour weight geometric mean (Day 22): 216.1 mg
- Ratio vs Vehicle (Day 22): 0.67
- Tumour weight, Difference vs Vehicle [12]: -122.5 mg
- Tumour weight, Estimate [12]: 225.0 mg
- Estimate (mg), tumour weight geometric mean (Day 25): 233.4 mg
- Ratio vs Vehicle (Day 25): 0.64
- Tumour weight, Difference vs Vehicle [13]: -157.9 mg
- Tumour weight, Estimate [13]: 244.0 mg
- Estimate (mg), tumour weight geometric mean (Day 29): 258.9 mg
- Ratio vs Vehicle (Day 29): 0.64
- Tumour weight, Difference vs Vehicle [14]: -164.9 mg
- Tumour weight, Estimate [14]: 273.6 mg
- Estimate (mg), tumour weight geometric mean (Day 32): 286.5 mg
- Ratio vs Vehicle (Day 32): 0.62
- Tumour weight, Difference vs Vehicle [15]: -208.5 mg
- Tumour weight, Estimate [15]: 310.1 mg
- Estimate (mg), tumour weight geometric mean (Day 36): 324.4 mg
- Ratio vs Vehicle (Day 36): 0.68
- Tumour weight, Difference vs Vehicle [16]: -190.3 mg
- Tumour weight, Estimate [16]: 360.9 mg
- Estimate (mg), tumour weight geometric mean (Day 39): 349.9 mg
- Ratio vs Vehicle (Day 39): 0.78
- Tumour weight, Difference vs Vehicle [17]: -165.4 mg
- Tumour weight, Estimate [17]: 389.6 mg
- Estimate (mg), tumour weight geometric mean (Day 43): 439.5 mg
- Ratio vs Vehicle (Day 43): 0.84
- Tumour weight, Difference vs Vehicle [18]: -138.1 mg
- Tumour weight, Estimate [18]: 506.6 mg
- Estimate (mg), tumour weight geometric mean (Day 46): 460.6 mg
- Ratio vs Vehicle (Day 46): 0.86
- Tumour weight, Difference vs Vehicle [19]: -107.4 mg
- Tumour weight, Estimate [19]: 536.4 mg
- Estimate (mg), tumour weight geometric mean (Day 50): 485.0 mg
- Ratio vs Vehicle (Day 50): 0.85
- Tumour weight, Difference vs Vehicle [20]: -130.4 mg
- Tumour weight, Estimate [20]: 573.5 mg
- Estimate (mg), tumour weight geometric mean (Day 53): 530.7 mg
- Ratio vs Vehicle (Day 53): 0.93
- Tumour weight, Difference vs Vehicle [21]: -61.2 mg
- Tumour weight, Estimate [21]: 653.0 mg
- Estimate (mg), tumour weight geometric mean (Day 57): 516.6 mg
- Ratio vs Vehicle (Day 57): 0.90
- Tumour weight, Difference vs Vehicle [22]: -144.3 mg
- Tumour weight, Estimate [22]: 626.6 mg
- Estimate (mg), tumour weight geometric mean (Day 60): 539.6 mg
- Ratio vs Vehicle (Day 60): 1.00
- Tumour weight, Difference vs Vehicle [23]: -84.5 mg
- Tumour weight, Estimate [23]: 680.5 mg
- Estimate (mg), tumour weight geometric mean (Day 64): 633.3 mg
- Tumour weight, Difference vs Vehicle [24]: 76.1 mg
- Tumour weight, Estimate [24]: 869.5 mg
- Estimate (mg), tumour weight geometric mean (Day 67): 695.7 mg
- Tumour weight, Difference vs Vehicle [25]: 85.1 mg
- Tumour weight, Estimate [25]: 952.8 mg
- Estimate (mg), tumour weight geometric mean (Day 71): 746.4 mg
- Tumour weight, Difference vs Vehicle [26]: 54.2 mg
- Tumour weight, Estimate [26]: 1078.5 mg
- Estimate (mg), tumour weight geometric mean (Day 74): 746.3 mg
- Ratio vs Vehicle (Day 74): 1.33
- Tumour weight, Difference vs Vehicle [27]: 157.2 mg
- Tumour weight, Estimate [27]: 1009.1 mg
- Estimated differences vs Vehicle in growth rates (exponential model y=C*exp(a*t), t in days, data up to 60 days, label number = dose mg/kg): −0.0042
- Estimated differences between active treatments in growth rates, vs G-B 560 (exponential model, data up to 60 days, contrast vs G-Block 560 mg/kg alone): −0.0015
